Results taken from patent US11999739B2, “Antimicrobials methods of making and using the same” (BIOVERSYS AG, priority 2016, dated 2024).

How the values were obtained:
[1] = tested on: Staphylococcus aureus (S. aureus) 11540 strain; assay: Standard microdilution MIC assay, S. aureus; type: cell-based
Method in brief: (§1)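 MICs obtained by CLSI-standard microdilution, quality-controlled with reference strains in parallel. Values reported as + or − relative to a 16 micrograms/mL cutoff.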

[2] = tested on: Escherichia coli strain ATCC25922; assay: Standard microdilution MIC assay, E. coli; type: cell-based
Method in brief: as §1

SMILES | MIC [1] | MIC [2]
CSc1cc(-n2cc3cc(-c4cc(CCC[C@H](C)N)cc(C(F)(F)F)c4)[nH]c3nc2=O)ccc1[C@@H]1CCC[C@@H](CCNC(C)=N)N1CCCF [Compound 292] | ≤ 16 µg/mL | ≤ 16 µg/mL
CC(=N)NCC[C@@H]1CCC[C@@H](c2ccc(-n3cc4cc(-c5cc(CCC[C@H](C)N)cc(C(F)(F)F)c5)[nH]c4nc3=O)cc2)N1CCCF [Compound 293] | ≤ 16 µg/mL | ≤ 16 µg/mL
CC(=N)NCC[C@@H]1CCC[C@@H](c2ccc(-n3cc4cc(-c5cc(F)c(C(F)(F)F)c(CCC[C@H](C)N)c5)[nH]c4nc3=O)cc2)N1 [Compound 318] | ≤ 16 µg/mL | ≤ 16 µg/mL
COc1cc(-n2cc3cc(-c4cc(CCC[C@H](C)N)cc(Cl)c4F)[nH]c3nc2=O)cc(F)c1[C@@H]1CCC[C@@H](CCNC(C)=N)N1 [Compound 319] | ≤ 16 µg/mL | ≤ 16 µg/mL
C=C[C@H](N)CCCc1cc(Cl)c(F)c(-c2cc3cn(-c4cc(F)c([C@@H]5CCC[C@@H](CCNC(C)=N)N5)c(OC)c4)c(=O)nc3[nH]2)c1 [Compound 320] | ≤ 16 µg/mL | ≤ 16 µg/mL
COc1cc(-n2cc3cc(-c4cc(CCC[C@@H](N)C5CC5)cc(Cl)c4F)[nH]c3nc2=O)cc(F)c1[C@@H]1CCC[C@@H](CCNC(C)=N)N1 [Compound 321] | ≤ 16 µg/mL | ≤ 16 µg/mL
COc1cc(-n2cc3cc(-c4cc(CCC[C@@H](N)CO)cc(C(F)(F)F)c4F)[nH]c3nc2=O)cc(F)c1[C@@H]1CCC[C@@H](CCNC(C)=N)N1 [Compound 323] | ≤ 16 µg/mL | ≤ 16 µg/mL
CC(=N)NCC[C@@H]1CCC[C@@H](c2ccc(-n3cc4cc(-c5cc(CCC[C@H](C)N)cc(Cl)c5F)[nH]c4nc3=O)cc2F)N1CCCF [Compound 325] | ≤ 16 µg/mL | ≤ 16 µg/mL
CSc1cc(-n2cc3cc(-c4cc(CCC[C@@H](N)C5CC5)cc(C(F)(F)F)c4)[nH]c3nc2=O)ccc1[C@@H]1CCC[C@@H](CCNC(C)=N)N1CCCF [Compound 326] | ≤ 16 µg/mL | ≤ 16 µg/mL
CC(=N)NCC[C@@H]1CCC[C@@H](c2ccc(-n3cc4cc(-c5cc(CCC[C@@H](N)C6CC6)cc(C(F)(F)F)c5)[nH]c4nc3=O)cc2F)N1CCCF [Compound 327] | ≤ 16 µg/mL | ≤ 16 µg/mL
CC(=N)NCC[C@@H]1CCC[C@@H](c2ccc(-n3cc4cc(-c5cc(CCC[C@H](C)N)cc(C(F)(F)F)c5)[nH]c4nc3=O)cc2F)N1CCCF [Compound 328] | ≤ 16 µg/mL | ≤ 16 µg/mL
CSc1cc(-n2cc3cc(-c4cc(CCC[C@H](C)N)cc(C(F)(F)F)c4)[nH]c3nc2=O)cc(F)c1[C@@H]1CCC[C@@H](CCNC(C)=N)N1CCCF [Compound 329] | ≤ 16 µg/mL | ≤ 16 µg/mL
CC(=N)NCC[C@@H]1CCC[C@@H](c2ccc(-n3cc4cc(-c5cc(CCC[C@@H](N)C6CC6)cc(C(F)(F)F)c5)[nH]c4nc3=O)cc2)N1CCCF [Compound 330] | ≤ 16 µg/mL | ≤ 16 µg/mL
CSc1cc(-n2cc3cc(-c4cc(CCC[C@H](C)N)cc(Cl)c4F)[nH]c3nc2=O)ccc1[C@@H]1CCC[C@@H](CCNC(C)=N)N1CCCF [Compound 331] | ≤ 16 µg/mL | ≤ 16 µg/mL
CC(=N)NCC[C@@H]1CCC[C@@H](c2ccc(-n3cc4cc(-c5cc(CCC[C@@H](N)C6CC6)cc(Cl)c5F)[nH]c4nc3=O)cc2F)N1CCCF [Compound 332] | ≤ 16 µg/mL | ≤ 16 µg/mL
CSc1cc(-n2cc3cc(-c4cc(CCC[C@@H](N)C5CC5)cc(Cl)c4F)[nH]c3nc2=O)ccc1[C@@H]1CCC[C@@H](CCNC(C)=N)N1CCCF [Compound 333] | ≤ 16 µg/mL | ≤ 16 µg/mL
CC(=N)NCC[C@@H]1CCC[C@@H](c2ccc(-n3cc4cc(-c5cc(CCC[C@@H](N)C6CC6)cc(Cl)c5F)[nH]c4nc3=O)cc2)N1CCCF [Compound 334] | ≤ 16 µg/mL | ≤ 16 µg/mL
CSc1cc(-n2c(C)c3cc(-c4cc(CCC[C@@H](N)C5CC5)cc(Cl)c4F)[nH]c3nc2=O)ccc1[C@@H]1CCC[C@@H](CCNC(C)=N)N1 [Compound 335] | ≤ 16 µg/mL | ≤ 16 µg/mL
CSc1cc(-n2cc3cc(-c4cc(CCC[C@@H](N)C5CC5)cc(C(F)(F)F)c4)[nH]c3nc2=O)cc(F)c1[C@@H]1CCC[C@@H](CCNC(C)=N)N1CCCF [Compound 337] | ≤ 16 µg/mL | ≤ 16 µg/mL
CSc1cc(-n2cc3cc(-c4cc(CCC[C@@H](N)C5CC5)cc(Cl)c4F)[nH]c3nc2=O)cc(F)c1[C@@H]1CCC[C@@H](CCNC(C)=N)N1CCCF [Compound 338] | ≤ 16 µg/mL | ≤ 16 µg/mL
COC[C@H](N)CCCc1cc(-c2cc3cn(-c4ccc([C@@H]5CCC[C@@H](C[C@@H](C)NC(C)=N)N5)cc4)c(=O)nc3[nH]2)c(F)c(C(F)(F)F)c1 [Compound 339] | ≤ 16 µg/mL | ≤ 16 µg/mL
C=C[C@@H](N)CCCc1cc(Cl)c(F)c(-c2cc3cn(-c4ccc([C@@H]5CCC[C@@H](C[C@@H](C)NC(C)=N)N5)cc4)c(=O)nc3[nH]2)c1 [Compound 340] | ≤ 16 µg/mL | ≤ 16 µg/mL
C=C[C@H](N)CCCc1cc(-c2cc3cn(-c4ccc([C@@H]5CCC[C@@H](CCNC(C)=N)N5CCCF)c(SC)c4)c(=O)nc3[nH]2)cc(C(F)(F)F)c1 [Compound 342] | ≤ 16 µg/mL | ≤ 16 µg/mL

SMILES | MIC [1] | MIC [2]
C=C[C@H](N)CCCc1cc(Cl)c(F)c(-c2cc3cn(-c4ccc([C@@H]5CCC[C@@H](CCNC(C)=N)N5CCCF)cc4)c(=O)nc3[nH]2)c1 [Compound 343] | ≤ 16 µg/mL | ≤ 16 µg/mL
C=C[C@H](N)CCCc1cc(Cl)c(F)c(-c2cc3cn(-c4ccc([C@@H]5CCC[C@@H](CCNC(C)=N)N5CCCF)c(SC)c4)c(=O)nc3[nH]2)c1 [Compound 344] | ≤ 16 µg/mL | ≤ 16 µg/mL
C=C[C@H](N)CCCc1cc(-c2cc3cn(-c4ccc([C@@H]5CCC[C@@H](CCNC(C)=N)N5CCCF)cc4)c(=O)nc3[nH]2)cc(C(F)(F)F)c1 [Compound 346] | ≤ 16 µg/mL | ≤ 16 µg/mL
COC[C@H](N)CCCc1cc(OC(F)(F)F)c(F)c(-c2cc3cn(-c4ccc([C@@H]5CCC[C@@H](CCNC(C)=N)N5)nc4)c(=O)nc3[nH]2)c1 [Compound 347] | ≤ 16 µg/mL | ≤ 16 µg/mL
COCCC(=N)NCC[C@@H]1CCC[C@@H](c2ccc(-n3cc4cc(-c5cc(CCC[C@H](C)N)cc(Cl)c5F)[nH]c4nc3=O)cc2)N1 [Compound 348] | ≤ 16 µg/mL | ≤ 16 µg/mL
C=C[C@H](N)CCCc1cc(-c2cc3cn(-c4ccc([C@@H]5CCC[C@@H](CCNC(C)=N)N5CCCF)c(F)c4)c(=O)nc3[nH]2)cc(C(F)(F)F)c1 [Compound 349] | ≤ 16 µg/mL | ≤ 16 µg/mL
C=C[C@H](N)CCCc1cc(Cl)c(F)c(-c2cc3cn(-c4cc(F)c([C@@H]5CCC[C@@H](CCNC(C)=N)N5CCCF)c(SC)c4)c(=O)nc3[nH]2)c1 [Compound 350] | ≤ 16 µg/mL | ≤ 16 µg/mL
C=C[C@H](N)CCCc1cc(-c2cc3cn(-c4cc(F)c([C@@H]5CCC[C@@H](CCNC(C)=N)N5CCCF)c(SC)c4)c(=O)nc3[nH]2)cc(C(F)(F)F)c1 [Compound 351] | ≤ 16 µg/mL | ≤ 16 µg/mL
CCCC(=N)NCC[C@@H]1CCC[C@@H](c2ccc(-n3cc4cc(-c5cc(CCC[C@H](C)N)cc(Cl)c5F)[nH]c4nc3=O)cc2)N1 [Compound 352] | ≤ 16 µg/mL | ≤ 16 µg/mL
CCCC(=N)NCC[C@@H]1CCC[C@@H](c2ccc(-n3cc4cc(-c5cc(CCC[C@H](C)N)cc(Cl)c5F)[nH]c4nc3=O)cc2SC)N1 [Compound 353] | ≤ 16 µg/mL | ≤ 16 µg/mL
C=C[C@H](N)CCCc1cc(Cl)c(F)c(-c2cc3cn(-c4ccc([C@@H]5CCC[C@@H](CCNC(C)=N)N5CCCF)c(F)c4)c(=O)nc3[nH]2)c1 [Compound 355] | ≤ 16 µg/mL | ≤ 16 µg/mL
COCC(=N)NCC[C@@H]1CCC[C@@H](c2ccc(-n3cc4cc(-c5cc(CCC[C@H](C)N)cc(Cl)c5F)[nH]c4nc3=O)cc2)N1 [Compound 356] | ≤ 16 µg/mL | ≤ 16 µg/mL
C[C@H](N)CCCc1cc(Cl)c(F)c(-c2cc3cn(-c4ccc([C@@H]5CCC[C@@H](CCNC(=N)CCO)N5)cc4)c(=O)nc3[nH]2)c1 [Compound 357] | ≤ 16 µg/mL | ≤ 16 µg/mL
COC[C@H](N)CCCc1cc(Cl)c(F)c(-c2cc3cn(-c4ccc([C@@H]5CCC[C@@H](CCNC(C)=N)N5)nc4)c(=O)nc3[nH]2)c1 [Compound 358] | ≤ 16 µg/mL | ≤ 16 µg/mL
COCCOCC(=N)NCC[C@@H]1CCC[C@@H](c2ccc(-n3cc4cc(-c5cc(CCC[C@H](C)N)cc(Cl)c5F)[nH]c4nc3=O)cc2)N1 [Compound 362] | ≤ 16 µg/mL | ≤ 16 µg/mL
CC(=N)NC[C@@H]1CCC[C@@H](c2ccc(-n3cc4cc(-c5cc(CCC[C@H](C)N)cc(Cl)c5F)[nH]c4nc3=O)cc2)N1 [Compound 363] | ≤ 16 µg/mL | ≤ 16 µg/mL
CC(=N)NCC[C@@H]1CCC[C@@H](c2ccc(-n3cc4cc(-c5cc(CCC[C@H](C)N)cc(Cl)c5F)[nH]c4nc3=O)cc2)N1CCF [Compound 364] | ≤ 16 µg/mL | ≤ 16 µg/mL
CC(=N)NCC[C@@H]1CCC[C@@H](c2ccc(-n3cc4cc(-c5cc(CCC[C@H](C)N)cc(Cl)c5F)[nH]c4nc3=O)cc2)N1C[C@@H](C)CO [Compound 365] | ≤ 16 µg/mL | ≤ 16 µg/mL
CC(=N)NCC[C@@H]1CCC[C@@H](c2ccc(-n3cc4cc(-c5cc(CCC[C@H](C)N)cc(Cl)c5F)[nH]c4nc3=O)cc2)N1C[C@H](C)CO [Compound 366] | ≤ 16 µg/mL | ≤ 16 µg/mL
CC(=N)NCC[C@@H]1CCC[C@@H](c2ccc(-n3cc4cc(-c5cc(CCC[C@H](C)N)cc(Cl)c5F)[nH]c4nc3=O)cc2)N1CC(C)C [Compound 369] | ≤ 16 µg/mL | ≤ 16 µg/mL
CC(=N)NCC[C@@H]1CCC[C@@H](c2ccc(-n3cc4cc(-c5cc(Cl)cc(CCC[C@H](C)N)c5)[nH]c4nc3=O)cc2)N1 [Compound 370] | ≤ 16 µg/mL | ≤ 16 µg/mL
COc1ccc(CCC[C@H](C)N)cc1-c1cc2cn(-c3ccc([C@@H]4CCC[C@@H](CCNC(C)=N)N4)cc3)c(=O)nc2[nH]1 [Compound 377] | ≤ 16 µg/mL | ≤ 16 µg/mL
